Measured values from patent US6342516B1, “Phenylazole compounds, process for producing the same and drugs for hyperlipemia” (Nippon Soda Co., Ltd., priority 1998, dated 2002).
pIC50: −log10 of the molar value.

Experiments:
[1] = tested on: cholesterol-fed hamsters; experiment: Effect on serum lipids of cholesterol-fed hamsters (serum total cholesterol and triglyceride reduction rate); assay type: in vivo; details: cholesterol-fed Syrian hamsters, oral once a day for 5 days
Experimental: Pharmacological Test Example 1: Effect on serum lipids of cholesterol-fed hamsters
Syrian hamsters (Std:Syrian, Male, 4 weeks old) were freely fed with chow containing 1% cholesterol and 10% coconut oil for 3 weeks ad libitum.
At the last week of feeding, each of the test compounds was dissolved or suspended in either 0.1% hydrochloric acid solution or 1% polyethylene-hydrogenated castor oil (NIKKOL HCO-60) solution and was orally administrated to hamsters once a day for 5 days. For the hamsters of the control group, only the solvent was orally administered. Then, blood was collected from the abdominal vein under the condition of anesthesia with pentobarbital at 2-4 hours after the last administration, and the serum in the blood was separated. The serum total cholesterol value and the serum triglyceride value were determined by using autobiochemical analyzer with analizing kits, and reduction rate of the serum lipids was determined according to the equation indicated below based on the analyzed values for respective hamster groups.
Serum lipids reduction rate (%)=(Amount of serum lipids of the control group−Amount of serum lipids of the group administrated with the test compound)/Amount of serum lipids of the control group×100

[2] = tested on: Lipid peroxidation activity in rat liver microsome; experiment: Effect on lipid peroxidation in vitro (rat liver microsome, thiobarbituric acid method); assay type: biochemical; details: rat liver microsomes, 500 μM cystein and 5 μM ferrous(II) sulfate, malonaldehyde by thiobarbituric acid method; read-out: Lipid Antiperoxidation Activity 50% Inhibition Concentration (IC50)
Experimental: Pharmacological Test Example 2: Effect on lipid peroxidation in vitro
Lipid peroxidation activity in rat liver microsome was determined according to the method of Malvy et al. (Malvy et al., Biochemical and Biophysical Research Communications, 95, 734-737 (1980)). More particularly, 500 μM cystein and 5 μM ferrous(II) sulfate were incubated with rat liver microsomes, and the amount of malonaldehyde produced due to the decomposition of lipid peroxide was determined according to thiobarbituric acid method. The concentration of the compounds required to inhibit the formation of lipid peroxide by 50% (IC50) was calculated.

[3] = tested on: carbon tetrachloride induced liver damage model in rats; experiment: Carbon tetrachloride induced liver damage model in rats (lipid peroxide in liver; serum GOT, GPT); assay type: in vivo, rats (SD-strain, male); details: CCl4: 1 ml/kg, dose 10 mg/kg oral 3 times
Experimental: Pharmacological Test Example 3: Effect on lipid peroxidation […] Effect of the compounds of the present invention on the produced lipid peroxide in liver was examined on carbon tetrachloride induced liver damage model in rats. Briefly, providing 5 SD-strain male rats (6 weeks old) for each group, carbon tetrachloride at the rate of 1 ml/kg or 2 ml/kg (0.5 ml/kg or 1 ml/kg based on carbon tetrachloride) was orally administered to the rats together with the equivalent dose of olive oil. At 24 hours after the administration of carbon tetrachloride, their livers were excised, and the produced amount of lipid peroxide in liver was determined by thiobarbituric acid method according to Uchiyama's method (Uchiyama, M., et al., Analytical biochemistry, 86, 271-278 (1978)). In parallel, as the indicator for liver disorder due to carbon tetrachloride, serum enzyme activity (GOT, GPT) was measured. Then each of the test compounds, which was either dissolved or suspended in either 0.1% hydrochloric acid solution or olive oil, was orally administered to the rats 3 times at 1 before and, 3 and 6 hours after the administration of carbon tetrachloride. For the rats of normal group and control groups, the solvent was orally administered. Based on the measured values for each groups, the inhibitory rate of producing peroxidized lipids and the inhibitory rate of causing liver disorder were calculated according to the following equation. Inhibitory rate of producing lipid peroxide (%)=[1−(Produced amount of lipid peroxide in the test compound group−Produced amount of lipid peroxide in the normal rat group)/(Produced amount of lipid peroxide in the control group−Produced amount of lipid peroxide in the normal rat group)]×100 Liver disorder preventing rate (%)=[1−(GOT amount of GPT amount in the test compound group−GOT amount or GPT amount in the normal rat group)/(GOT amount or GPT amount in the control group−GOT amount or GPT amount in the normal rat group)]×100 The results are presented in Table 8.

Compound	Serum lipids reduction rate comparing to Control group (%), Means of 3 animals: Total cholesterol ([1]; dose 25 mg/kg) [%]	Serum lipids reduction rate comparing to Control group (%), Means of 3 animals: Triglyceride ([1]; dose 25 mg/kg) [%]	pIC50 [2]	also measured
Cc1c(C)c2c(c(C)c1O)CC(C)(C=CC(=O)Nc1ccc(-n3ccnc3)cc1)O2 (racemic) [3-15]	26	30	6.04	
Cc1c(C)c2c(c(C)c1O)CC(C)(CCC(=O)Nc1ccc(-n3ccnc3)cc1)O2 (racemic) [3-10]	35	51	5.68	
Cc1cc(C(C)(C)C)c(O)c(C(C)(C)C)c1 [BHT, 2,6-t-Dibutyl-p-cresol, reference compound]			5.66	
Cc1c(C)c2c(c(C)c1OC(=O)c1ccccc1)CCC(C)(C(=O)Nc1ccc(-n3ccnc3)cc1)O2 (racemic) [3-14]	22	31	5.59	
Cc1c(C)c2c(c(C)c1O)CC(C)(CCCCC(=O)Nc1ccc(-n3ccnc3)cc1)O2 (racemic) [3-12]			5.60	
Cc1c(C)c2c(c(C)c1O)CC(C)(C(=O)Nc1ccc(-n3ccnc3)cc1)O2 (racemic) [3-9]	38	49	5.72	
Cc1c(C)c2c(c(C)c1O)CCC(C)(C(=O)NCCCCCC(=O)Nc1ccc(-n3ccnc3)cc1)O2 (racemic) [3-8]			5.42	
CC(=O)Oc1c(C)c(C)c2c(c1C)CC(C)(C(=O)Nc1ccc(-n3ccnc3)cc1)O2 (racemic) [3-13]			5.55	
Cc1c(C)c2c(c(C)c1O)CCC(C)(CC(=O)Nc1ccc(-n3ccnc3)cc1)O2 (racemic) [3-4]	37	80	5.64	
CC(=O)Oc1c(C)c(C)c2c(c1C)CC(C)(C(=O)Nc1ccc(-c3ccn[nH]3)cc1)O2 (racemic) [3-19]			6.38	
CC1=C(C)C(=O)C(C(CCCc2ccccc2)CCC(=O)Nc2ccc(-n3ccnc3)cc2)=C(C)C1=O (stereo not drawn) [Compound No. 3-28, N-[4-(imidazol-1-yl)phenyl]-7-phenyl-4-(3,5,6-trimethyl-1,4-benzoquinon-2-yl)heptanamide]	29	23	5.48	Antioxidation Activity of Lipid: Mass of lipid peroxide ([3]; liver at 24 hours): 5.781 A535nm/g lever; Antioxidation Activity of Lipid: Prevention Rate ([3]; liver at 24 hours): 61%; Preventive Activity on Liver Disorder: GOT ([3]; serum): 269 IU/L; Preventive Activity on Liver Disorder: GOT Prevention Rate ([3]; serum): 76%; Preventive Activity on Liver Disorder: GPT ([3]; serum): 82 IU/L; Preventive Activity on Liver Disorder: GPT Prevention Rate ([3]; serum): 82%
Cc1c(C)c2c(c(C)c1O)CC(C)(C=CC=CC(=O)Nc1ccc(-n3ccnc3)cc1)O2 (racemic) [3-16]			5.68	
O=C(COc1ncccn1)Nc1ccc(-n2ccnc2)cc1 [4-101]	41	38		
O=C(COc1ccc2ccccc2n1)Nc1ccc(-n2ccnc2)cc1 [4-96]	36	50		
Cc1c(C)c2c(c(C)c1O)CCC(C)(CCC(=O)Nc1ccc(-n3ccnc3)cc1)O2 (racemic) [3-5]			5.89	
Cc1ccc2ccc(C(=O)Nc3ccc(-n4ccnc4)cc3)cn12 [4-71]	45	62		

Compound	Serum lipids reduction rate comparing to Control group (%), Means of 3 animals: Total cholesterol ([1]; dose 25 mg/kg) [%]	Serum lipids reduction rate comparing to Control group (%), Means of 3 animals: Triglyceride ([1]; dose 25 mg/kg) [%]	pIC50 [2]	also measured
O=C(Nc1ccc(-n2ccnc2)cc1)c1cnccn1 [4-33]				Serum lipids reduction rate comparing to Control group (%), Means of 3 animals: Total cholesterol ([1]; dose 12.5 mg/kg): 35%; Serum lipids reduction rate comparing to Control group (%), Means of 3 animals: Triglyceride ([1]; dose 12.5 mg/kg): 44%
O=C(Nc1ccc(-n2ccnc2)cc1)c1cc2cc(F)ccc2[nH]1 [4-9]	44	61		
O=C(Nc1ccc(-n2ccnc2)cc1)c1cc2cc(Cl)ccc2[nH]1 [Compound No. 4-8]	37	73		
O=C(Cn1c(=O)ccc2ccccc21)Nc1ccc(-c2ccn[nH]2)cc1 [4-91]	37	48		
CC(C)c1cc(C(=O)Nc2ccc(-n3ccnc3)cc2)cc(O)n1 [4-28]				Serum lipids reduction rate comparing to Control group (%), Means of 3 animals: Total cholesterol ([1]; dose 12.5 mg/kg): 24%; Serum lipids reduction rate comparing to Control group (%), Means of 3 animals: Triglyceride ([1]; dose 12.5 mg/kg): 34%
Cn1cccc1C(=O)Nc1ccc(-n2ccnc2)cc1 [4-39]	25	45		
O=C(Nc1ccc(-n2ccnc2)cc1)c1cnc2ccccc2n1 [4-37]				Serum lipids reduction rate comparing to Control group (%), Means of 3 animals: Total cholesterol ([1]; dose 12.5 mg/kg): 26%; Serum lipids reduction rate comparing to Control group (%), Means of 3 animals: Triglyceride ([1]; dose 12.5 mg/kg): 25%
O=C(Nc1ccc(-n2ccnc2)cc1)C1COc2ccccc2O1 (stereo not drawn) [4-70]	34	48		
O=C(Nc1ccc(-n2ccnc2)cc1)c1cc2ccccc2[nH]1 [4-2]				Serum lipids reduction rate comparing to Control group (%), Means of 3 animals: Total cholesterol ([1]; dose 12.5 mg/kg): 32%; Serum lipids reduction rate comparing to Control group (%), Means of 3 animals: Triglyceride ([1]; dose 12.5 mg/kg): 45%
O=C(Nc1ccc(-n2ccnc2)cc1)c1ccco1 [4-48]	76	85		
CC1(C(=O)Nc2ccc(-n3ccnc3)cc2)Cc2ccccc2O1 (racemic) [4-12]	27	41		
O=C(CCc1cccnc1)Nc1ccc(-n2ccnc2)cc1 [4-90]	22	36		
Cn1c(C(=O)Nc2ccc(-n3ccnc3)cc2)cc2ccccc21 [4-4]				Serum lipids reduction rate comparing to Control group (%), Means of 3 animals: Total cholesterol ([1]; dose 12.5 mg/kg): 23%; Serum lipids reduction rate comparing to Control group (%), Means of 3 animals: Triglyceride ([1]; dose 12.5 mg/kg): 32%
O=C(Nc1ccc(-n2ccnc2)cc1)c1ccc(Cl)nc1 [4-25]				Serum lipids reduction rate comparing to Control group (%), Means of 3 animals: Total cholesterol ([1]; dose 12.5 mg/kg): 25%; Serum lipids reduction rate comparing to Control group (%), Means of 3 animals: Triglyceride ([1]; dose 12.5 mg/kg): 52%
Cc1c(C)c2c(c(C)c1O)CCC(C)(C(=O)Nc1ccc(-c3ccn[nH]3)cc1)O2 (racemic) [Compound No. 3-25, (±)-(6-hydroxy-2,5,7,8-tetramethylchroman-2-yl)-N-[4-(pyrrazol-5-yl)phenyl]carboxamide]			6.31	
